Assay [1] relates to MX-1. The assay can be described thus: Growth inhibition of CDK9-positive tumor cell line in vitro. The following applies: MX1, Human breast cancer, read-out: Inhibitory activity (IC50) on growth in vitro, MX-1. It is filed as cell-based. The method, then:
(§1) Measurement of the Inhibitory Activity of the Present Compound on the Growth of Various Types of CDK9-Positive Tumor Cell Lines In Vitro
(§2) The inventors selected representative CDK9-positive tumor cell lines for further determination of the compound activity. All cell lines used came from ATCC, JCRB, DSMZ and Chinese Academy of Sciences Cell Bank (ZK). Cell culture condition and method were based on the requirements of each cell line. No more than 3 passages were carried out in each culture in vitro. Monoclonal purification and STR identification of the cell line were conducted if necessary.

Assay [2] concerns NCI-H1781. The description is as above. It is filed as cell-based. The following applies: Human lung cancer, read-out: Inhibitory activity (IC50) on growth in vitro, NCI-H1781. Here is the method: as §1, §2
Assay [3] deals with BT-474. The description is as above. As to conditions: Human breast cancer, read-out: Inhibitory activity (IC50) on growth in vitro, BT-474. Type of assay: cell-based. The method, then:
as §1, §2

Assay [4] has as its system PC-9. Described as above. Type of assay: cell-based. The following applies: Human lung cancer, read-out: Inhibitory activity (IC50) on growth in vitro, PC-9. Here is the method: as §1, §2
Assay [5] has as its system SK-BR-3. The assay is described as above. Type of assay: cell-based. As to conditions: Human breast cancer, read-out: Inhibitory activity (IC50) on growth in vitro, SK-BR-3. Here is the method:
as §1, §2

In assay [6] the test system is Sk-ov-3. The description is as above. The following applies: Human ovarian cancer, read-out: Inhibitory activity (IC50) on growth in vitro, Sk-ov-3. It is filed as cell-based. The method, then:
as §1, §2

Assay [7] concerns AGS. The description is as above. It is filed as cell-based. As to conditions: Human stomach cancer, read-out: Inhibitory activity (IC50) on growth in vitro, AGS. The method, then:
as §1, §2

The subject of assay [8] is BT-549. Described as above. The following applies: Human breast cancer, read-out: Inhibitory activity (IC50) on growth in vitro, BT-549. It is filed as cell-based. Here is the method:
as §1, §2

For assay [9], the system named is NCI-H358. The description is as above. It is filed as cell-based. The following applies: Human lung cancer, read-out: Inhibitory activity (IC50) on growth in vitro, NCI-H358. Here is the method: as §1, §2
Assay [10] has as its system SK-MEL-28. Described as above. As to conditions: Human melanoma, read-out: Inhibitory activity (IC50) on growth in vitro, SK-MEL-28. Type of assay: cell-based. The method, then:
as §1, §2

Assay [11] deals with NCI-H1703. Described as above. It is filed as cell-based. As to conditions: Human lung cancer, read-out: Inhibitory activity (IC50) on growth in vitro, NCI-H1703. Here is the method:
as §1, §2

Assay [12] has as its system MOLM13 cells. In words: Growth inhibition of CDK9-positive cell line MOLM13 in vitro (CCK8/MTT assay). It is filed as cell-based, human. The following applies: Homo sapiens.
In assay [13] the target is T1, CDK9/CyclinK kinase (Homo sapiens, UniProt P50750).
T1 construct: purchased Promega Corporation V4105
T1 sequence (P50750 whole entry): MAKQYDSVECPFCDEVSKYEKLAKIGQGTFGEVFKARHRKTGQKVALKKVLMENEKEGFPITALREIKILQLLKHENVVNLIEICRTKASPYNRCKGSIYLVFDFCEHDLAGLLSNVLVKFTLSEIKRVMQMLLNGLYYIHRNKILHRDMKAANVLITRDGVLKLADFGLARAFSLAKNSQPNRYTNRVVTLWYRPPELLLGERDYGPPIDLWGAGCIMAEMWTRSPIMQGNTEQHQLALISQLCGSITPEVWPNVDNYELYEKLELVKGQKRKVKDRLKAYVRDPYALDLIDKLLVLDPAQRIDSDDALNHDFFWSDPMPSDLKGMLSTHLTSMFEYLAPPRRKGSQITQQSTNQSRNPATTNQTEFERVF
T1 sequence (O75909 whole entry partner): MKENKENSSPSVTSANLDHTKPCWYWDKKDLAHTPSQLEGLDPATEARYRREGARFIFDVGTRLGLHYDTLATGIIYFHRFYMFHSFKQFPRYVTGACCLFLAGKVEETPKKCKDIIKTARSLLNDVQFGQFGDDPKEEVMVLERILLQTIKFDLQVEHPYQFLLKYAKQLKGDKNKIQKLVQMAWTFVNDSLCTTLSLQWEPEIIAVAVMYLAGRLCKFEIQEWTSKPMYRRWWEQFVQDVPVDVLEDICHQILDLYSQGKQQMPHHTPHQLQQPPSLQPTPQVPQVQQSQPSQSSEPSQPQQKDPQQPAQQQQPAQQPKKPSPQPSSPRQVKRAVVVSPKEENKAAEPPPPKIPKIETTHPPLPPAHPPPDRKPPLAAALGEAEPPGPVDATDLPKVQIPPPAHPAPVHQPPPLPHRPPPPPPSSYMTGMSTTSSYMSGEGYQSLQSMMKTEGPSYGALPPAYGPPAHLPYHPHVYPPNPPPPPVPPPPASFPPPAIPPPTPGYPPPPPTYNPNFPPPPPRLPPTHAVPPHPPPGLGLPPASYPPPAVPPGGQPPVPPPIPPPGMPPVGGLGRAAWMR
The assay can be described thus: CDK9 protein kinase activity, ADP-Glo CDK9/CyclinK kinase detection kit. The following applies: read-out: IC50 of the compound for inhibiting CDK9 protein kinase activity, CDK9/CyclinK kinase. It is filed as biochemical. The method, then:
Measurement of CDK9 Protein Kinase Activity
The present compound was dissolved in DMSO (Sigma Aldrich), and the initial concentration of the compound was 1000 nM. A two-fold serial dilution was carried out. The specific operation of CDK9 kinase activity determination was carried out according to the ADP-Go™ CDK9/CyclinK kinase detection experimental procedure. […] Each test sample was tested in duplicate, and the test was repeated once. The inhibitory activity (IC50) of the compound on CDK9 protein kinase was calculated from the dose-inhibition curve of the compound.
On the technique in general: In ADP-Glo the light output rises with the ADP produced.

The subject of assay [14] is A549. In words: Growth inhibition of CDK9-positive tumor cell line in vitro. Type of assay: cell-based, Human. The method, then:
as §1, §2

Assay [15] has as its system AN3-CA. The assay is described as above. Type of assay: cell-based. The following applies: Human endometrial cancer, read-out: Inhibitory activity (IC50) on growth in vitro, AN3-CA. From the text: Test Example 3. Measurement of the Inhibitory Activity of the Present Compound on the Growth of Various Types of CDK9-Positive Tumor Cell Lines In Vitro
Tumor cell line is an effective cell model for studying the inhibitory activity of a drug on tumor growth in vitro. The inventors selected representative CDK9-positive tumor cell lines for further determination of the compound activity. All cell lines used came from ATCC, JCRB, DSMZ and Chinese Academy of Sciences Cell Bank (ZK). Cell culture condition and method were based on the requirements of each cell line. No more than 3 passages were carried out in each culture in vitro. Monoclonal purification and STR identification of the cell line were conducted if necessary.
Drug treatment, MTT assay and IC50 calculation were performed in accordance with Test Example 1.

Where [16] appears, read: MOLM-13, MOLM13 cells, cultured 3 to 6 days, CCK8, read-out: IC50 of the compound for inhibiting cell growth, MOLM13 cells.
Setting [17] is: Human lung cancer, A549, read-out: Inhibitory activity (IC50) on growth in vitro, A549.

Read-outs that look alike come from different tables or passages of the source.

Consider `Cc1cc(Nc2ncc(Cl)c(-n3cc(C(N)=O)c4ccccc43)n2)ccc1N1CCN(C(C)C)CC1` [Compound 60, 1-{5-chloro-2-[4-(4-isopropyl-piperazin-1-yl)-3-methyl-phenylamino]-pyrimidin-4-yl}-1H-indole-3-carboxamide], for which the IC50 in assay [1] is 1 to 10 nM; in assay [2], 10 to 100 nM; in assay [3], 10 to 100 nM; in assay [4], 100 to 1000 nM; in [5], 1 to 10 nM; in assay [6], 10 to 100 nM. The IC50 in assay [7] was 100 to 1000 nM; in assay [8], 10 to 100 nM; in assay [9] it was 100 to 1000 nM; in assay [10], 100 to 1000 nM; in assay [11], 10 to 100 nM; in assay [12] (setting [16]) it was < 1 nM. Besides, the IC50 in assay [13] lay within 1 to 10 nM.

With `NC(=O)c1cn(-c2nc(Nc3cccc(N4CCN(C5CCOCC5)CC4)c3)ncc2F)c2ccccc12` [Compound 140, 1-(5-fluoro-2-{3-[4-(tetrahydro-pyran-4-yl)-piperazin-1-yl]-phenylamino}-pyrimidin-4-yl)-1H-indole-3-carboxamide], the IC50 in [1] was < 1 nM; in [2], < 1 nM; in assay [3], < 1 nM; in assay [4] it was 1 to 10 nM; in assay [5] it was < 1 nM; in [6], < 1 nM. In addition, the IC50 in [7] is 1 to 10 nM; in assay [8] it was < 1 nM; in assay [9] it was 1 to 10 nM; in assay [10] it was 1 to 10 nM; in assay [11] it was < 1 nM; in assay [14] (setting [17]), 1 to 10 nM. Moreover, the IC50 in assay [15] and in [12] (setting [16]) was < 1 nM in each case.

Regarding `CC(C)N1CCN(c2cccc(Nc3ncc(F)c(-n4cc(C(N)=O)c5ccccc54)n3)c2)CC1` [Compound 144, 1-{5-fluoro-2-[3-(4-isopropyl-piperazin-1-yl)-phenylamino]-pyrimidin-4-yl}-1H-indole-3-carboxamide], the IC50 was < 1 nM in assay [1]; < 1 nM in [2]; < 1 nM in [3]; 1 to 10 nM in assay [4]; < 1 nM in assay [5]; < 1 nM in [6]. The IC50 in assay [7] was 1 to 10 nM; in assay [8], < 1 nM; in assay [9], 1 to 10 nM; in assay [10] it was 1 to 10 nM; in [11], < 1 nM; in [14] (setting [17]), 1 to 10 nM. For the same compound, the IC50 in [15] and in [12] (setting [16]) was < 1 nM in each case.

As to `CCN1CCN(c2cccc(Nc3ncc(F)c(-n4cc(C(N)=O)c5cc(OC)ccc54)n3)c2)CC1` [Compound 152, 1-{2-[3-(4-ethyl-piperazin-1-yl)-phenylamino]-5-fluoro-pyrimidin-4-yl}-5-methoxy-1H-indole-3-carboxamide], the IC50 is < 1 nM in assay [1]; < 1 nM in [2]; < 1 nM in assay [3]; 1 to 10 nM in assay [4]; < 1 nM in [5]; < 1 nM in assay [6]. In addition, the IC50 in assay [7] is 1 to 10 nM; in assay [8], < 1 nM; in assay [9], 1 to 10 nM; in assay [10], 1 to 10 nM; in assay [11], < 1 nM; in [14] (Homo sapiens, A549, read-out: Inhibitory activity (IC50) on growth in vitro, A549) it was 1 to 10 nM. Moreover, the IC50 in assay [15] was < 1 nM; in [12] (MOLM-13, read-out: IC50 of the compound for inhibiting cell growth, MOLM13 cells) it was < 1 nM; in assay [13], < 1 nM.

With `CCN1CCN(c2cccc(Nc3ncc(F)c(-n4cc(C(N)=O)c5cc(F)ccc54)n3)c2)CC1` [Compound 161, 1-{2-[3-(4-ethyl-piperazin-1-yl)-phenylamino]-5-fluoro-pyrimidin-4-yl}-5-fluoro-1H-indole-3-carboxamide], the IC50 is < 1 nM in assay [1]; < 1 nM in assay [2]; < 1 nM in assay [3]; 1 to 10 nM in [4]; < 1 nM in assay [5]; < 1 nM in assay [6]. The IC50 in [7] was 1 to 10 nM; in assay [8], < 1 nM; in assay [9], 1 to 10 nM; in assay [10], 1 to 10 nM; in [11] it was < 1 nM; in [14] (setting [17]) it was 1 to 10 nM. For the same compound, the IC50 in assay [12] (setting [16]) and in assay [13] was < 1 nM throughout.

For the origin of these results see patent US20210101881A1 (Ancureall Pharmaceutical (Shanghai) Co., Ltd., priority 2018, published 2021).
